Data from patent publication US5563176A (priority 1994, dated 1996).
Where two headings read alike, the source gives them in different places.

Columns and labels:
CEM parent cells = test: sensitivity of mdr lines, CEM parent; format: cell-based
[1] = test system: CEM VLB100 (gp170+) variant cells; test: sensitivity of mdr lines, CEM VLB100; format: cell-based
[2] = test system: L1210 DDPt (cis-plat) cells; test: sensitivity of mdr lines, L1210 DDPt; format: cell-based; settings: Mus musculus
242, melanoma = test: inhibition of thymidine incorporation after two hour exposure, 242; format: cell-based; settings: 2 h; Table 1; 242, two hour exposure
Description: (§1) To assess cytotoxic effects, various concentrations of illudins were added to cultures of cells for 48 hours, then cell growth/viability was determined by trypan blue exclusion. As an alternative to 48 hour continuous exposure studies, cells were plated in liquid culture in 96 well plates, exposed to various concentrations of illudins for 2 hours, pulsed with [^3 H]-thymidine for one to two hours and harvested onto glass filters. The filter papers were added to vials containing scintillation fluid and residual radioactivity determined in a beta (scintillation) counter.
(§2) two hour exposure to the toxins (N - 3).

[3] = test system: human lung adenocarcinoma MV522; settings: in vivo
CEM AraC variant cells = test: sensitivity of mdr lines, CEM AraC; format: cell-based
C1498 cells = test: C1498 syngeneic mouse AML model, increased life span; format: in vivo
Description: In collaboration, the in vivo effects of dehydroilludin M was again studied. Initially the compound was studied against L1210 cells. […] The dehydroilludin M was then administered as a 24 hour infusion (5.0 mg/kg); the ILS was 11%. After we became aware of the presence of the energy-dependent uptake in human myelocytic cells, dehydroilludin M was screened for in vivo […], produced an ILS of 35%.

HL60 cells = test: cells; format: cell-based; settings: Homo sapiens, HL-60, 48 h, read-out: 48 hour IC50
8392 cells = test: cells; format: cell-based; settings: 48 h, read-out: 48 hour IC50
L1210 parent cells = test: sensitivity of mdr lines, L1210 parent; format: cell-based; settings: Mus musculus
MCF-7, breast = test: cells; format: cell-based, human
Go = test: zone of inhibition, Go
MV522 = test: cells; format: cell-based; settings: Homo sapiens, MV522, 48 h, read-out: 48 hour IC50
CFU-GM = test: colony formation zone size, CFU-GM; settings: CFU-GM
MV522 cells = test: cells; format: cell-based, human; settings: Homo sapiens, MV522, 2 h, read-out: Two hour IC50
[4] = test system: L1210 PAM (melphalan) cells; test: sensitivity of mdr lines, L1210 PAM; format: cell-based; settings: Mus musculus
L1210 BCNU cells = test: sensitivity of mdr lines, L1210 BCNU; format: cell-based; settings: Mus musculus
HL60 cells (myeloid) = test: cells; format: cell-based, human; settings: Homo sapiens, HL-60, 2 h
HL-60 parent cells = test: sensitivity of mdr lines, HL-60 parent; format: cell-based; settings: Homo sapiens
Colon 38 = test: zone of inhibition, Colon 38
HL-60 ADR (gp150+) cells = test: sensitivity of mdr lines, HL-60 ADR; format: cell-based; settings: Homo sapiens, HL60/ADR
8402, T-cell = test: inhibition of thymidine incorporation after two hour exposure, 8402; format: cell-based; settings: 2 h, Table 1, 8402, two hour exposure
Description: as §1, §2

[5] = test system: human lung adenocarcinoma MV522; test: animal or person; settings: MV522, ip, read-out: life span
[6] = test system: MCF7 ADR (GSH-transferase) cells; test: cells; format: cell-based; settings: Homo sapiens
HL-60 cells = test: cells; format: cell-based, human; settings: Homo sapiens, HL-60
[7] = test system: MDA-231 parent (Breast) cells; test: sensitivity of mdr lines, MDA-231 parent; format: cell-based; settings: Homo sapiens, MDA-MB-231
CEM VM-1 variant cells = test: sensitivity of mdr lines, CEM VM-1; format: cell-based; settings: Homo sapiens, CEM-VM1
547, ovarian = test: inhibition of thymidine incorporation after two hour exposure, 547; format: cell-based; settings: 2 h; Table 1; 547, two hour exposure
Description: as §1, §2

[8] = test system: CEM Dox (gp170+) variant cells; test: sensitivity of mdr lines, CEM Dox; format: cell-based
KB VBL (gp170+) cells = test: sensitivity of mdr lines, KB VBL; format: cell-based
KB parent cells = test: sensitivity of mdr lines, KB parent; format: cell-based
KB C-1 (gp170+) cells = test: sensitivity of mdr lines, KB C-1; format: cell-based; settings: KBC-1
[9] = test system: MDA-231 3-1 (gp170+) cells; test: sensitivity of mdr lines, MDA-231 3-1; format: cell-based; settings: Homo sapiens, MDA-MB-231
L1210 = test: zone of inhibition / colony formation, L1210
[10] = test system: Molt-4 (human T-cell leukemia) xenograft; test: Molt-4 xenograft in athymic Balb/c nu/nu mice; format: in vivo; settings: Molt-4, athymic mice; FIG. 4
MDA-231, breast = test: cells; format: cell-based
[11] = test system: L1210 CPA (cyclophos) cells; test: sensitivity of mdr lines, L1210 CPA; format: cell-based; settings: Mus musculus
[12] = test system: MCF7-wt parent (Breast) cells; test: sensitivity of mdr lines, MCF7-wt parent; format: cell-based; settings: Homo sapiens
8392 cells (B-cell) = test: cells; format: cell-based; settings: 2 h
SL-2, murine (thymic) = test: inhibition of thymidine incorporation after two hour exposure, SL-2; format: cell-based; settings: Mus musculus, 2 h; Table 1; SL-2, two hour exposure
Description: as §1, §2

Compound: CC1=C2C(=C[C@@](C)(CO)C2O)C(=O)[C@](C)(O)C12CC2 (stereo partly shown) [Illudin S]
- IC50 (CEM parent cells): 8.3 ± 2.6 nM
- IC50 [1]: 3.7 ± 0.7 nM
- IC50 [2]: 0.46 ± 0.12 nM
- IC50 (242, melanoma): 607 ± 70 nM
- life span versus control [3]: no significant increase in the life span
- IC50 (CEM AraC variant cells): 14 nM
- ILS (C1498 cells; 2.5 mg/kg IP once a day for 5 days): 44%
- ILS (C1498 cells; single bolus, 2.5 mg/kg IP): 35%
- IC50 (HL60 cells): 10 ± 1 nM
- IC50 (8392 cells): 8 ± 2 nM
- IC50 (L1210 parent cells): 0.42 ± 0.08 nM
- sensitivity to illudin S (MCF-7, breast): markedly sensitive
- IC50 (MCF-7, breast; Homo sapiens, MCF7, 2 h): 58 ± 5 nM
- Zone of Inhibition (Go; 0.63 ug/disc): 3
- Zone of Inhibition (Go; 1.25 ug/disc): 70
- Zone of Inhibition (Go; 2.50 ug/disc): 240
- IC50 (MV522): 4 ± 1 nM
- Zone Size (CFU-GM; dilution 1/1,000): 400
- Zone Size (CFU-GM; dilution 1/4,000): 200
- Zone Size (CFU-GM; dilution 1/16,000): 0
- Zone Size (CFU-GM; dilution 1/64,000): 0
- IC50 (MV522 cells): 19 ± 6 nM
- IC50 [4]: 0.62 ± 0.15 nM
- IC50 (L1210 BCNU cells): 0.58 ± 0.08 nM
- IC50 (HL60 cells (myeloid)): 7 ± 1 nM
- IC50 (HL60 cells (myeloid); read-out: Two hour IC50): 10 ± 1 nM
- IC50 (HL-60 parent cells): 3.1 ± 1.1 nM
- Zone of Inhibition (Colon 38; Colon 38, 0.63 ug/disc): 0
- Zone of Inhibition (Colon 38; Colon 38, 1.25 ug/disc): 0
- Zone of Inhibition (Colon 38; Colon 38, 2.50 ug/disc): 30
- IC50 (HL-60 ADR (gp150+) cells): 1.9 ± 0.8 nM
- IC50 (8402, T-cell): 669 ± 196 nM
- response vs control in vivo at 0.25 mg/kg [5]: 104 ± 20%
- response vs control in vivo at 2.5 mg/kg [5]: < 26%
- IC50 ([6]; NCI/ADR-RES, read-out: Sensitivity of mdr lines): 3.7 ± 0.4 nM
- IC50 ([6]; read-out: daughter line IC50): 3.7 nM
- IC50 (HL-60 cells): 10 nM
- IC50 [7]: 0.85 ± 0.23 nM
- IC50 (CEM VM-1 variant cells): 16.2 ± 6.4 nM
- IC50 (547, ovarian): 607 ± 110 nM
- IC50 [8]: 14 nM
- IC50 (KB VBL (gp170+) cells): 0.69 ± 0.11 nM
- IC50 (KB parent cells): 0.58 ± 0.12 nM
- IC50 (KB C-1 (gp170+) cells): 0.69 ± 0.15 nM
- IC50 [9]: 0.89 ± 0.38 nM
- Zone of Inhibition (L1210; L1210, 0.63 ug/disc): 320
- Zone of Inhibition (L1210; L1210, 1.25 ug/disc): 400
- Zone of Inhibition (L1210; L1210, 2.50 ug/disc): 500
- Zone Size (L1210; L1210, dilution 1/1,000): 850
- Zone Size (L1210; L1210, dilution 1/4,000): 600
- Zone Size (L1210; L1210, dilution 1/16,000): 550
- Zone Size (L1210; L1210, dilution 1/64,000): 300
- tumor growth [10]: tumor growth delay
- sensitivity to illudin S (MDA-231, breast): markedly sensitive
- IC50 (MDA-231, breast; Homo sapiens, MDA-MB-231, 2 h): 2 ± 0.2 nM
- IC50 [11]: 0.46 ± 0.12 nM
- IC50 ([12]; MCF7-wt Parent, read-out: Sensitivity of mdr lines): 0.88 ± 0.11 nM
- IC50 ([12]; MCF7-wt, read-out: parent IC50): 0.88 nM
- IC50 (8392 cells (B-cell)): 236 ± 31 nM
- IC50 (8392 cells (B-cell); read-out: Two hour IC50): 236 ± 2 nM
- IC50 (SL-2, murine (thymic)): 142 ± 15 nM
